Measurements reported in paper PMC4078514, “A Bombesin-Shepherdin Radioconjugate Designed for Combined Extra- and Intracellular Targeting” (Pharmaceuticals, 2014).

How the values were obtained:
[1] = LogD determination, shake flask method (n-octanol/PBS); assay type: physicochemical; settings: shake-flask n-octanol/PBS pH 7.4 (1:1, 1 mL, pre-saturated); 10 µL (1 µM) radiolabeled peptide; vortexed 1 min, centrifuged 3,000 rpm 10 min; gamma counter read-out; 2-3 experiments each in quintets, mean ± SD
Method: The hydrophilicity of the radiolabeled peptides 12–16 was evaluated by determination of their partition coefficient between n-octanol and phosphate buffered saline (PBS, pH 7.4) using the shake flask method. In brief, 10 µL (1 µM) of radiolabeled peptides 12–16 were added to a pre-saturated solution of n-octanol and PBS (1:1, 1 mL) and the tubes were vortexed (1 min) and centrifuged (3,000 rpm, 10 min). Aliquots of 100 µL of each phase were radiometrically measured in a gamma counter and the logD values were calculated by the logarithm of the ratio between the radioactive counts in the octanol fraction and the radioactive counts in the PBS fraction. The experiment was performed 2–3 times, each in quintets, and results are reported by mean values ± standard deviation (SD).

[2] = system: GRP-r overexpressing PC-3 cells; assay: Internalization assay in PC-3 cells; assay type: cell-based, human; settings: 0.25 pmol, 1.5-2.0 kBq/well, within 30-60 min, percentage of applied dose normalized to 10^6 cells, n = 2-3 in triplicates, approximate
Method: Cell culturing of human prostate adenocarcinoma (PC-3) cells and in vitro assays (internalization, receptor saturation binding, and externalization) were performed as previously described and are thus described only in brief.
For the determination of cellular uptake, PC-3 cells were incubated with the radiolabeled peptides [^99mTc(CO)3(L)] (L = 14–16; 0.25 pmol; 1.5–2.0 kBq/well) for different time points to allow binding and internalization. Non-specific receptor binding and internalization was determined by incubating the cells with excess of natural bombesin(1–14) as a receptor blocking agent. At each time point, the supernatant was collected, representing the free radiopeptide fraction. The cell surface receptor bound fraction was obtained by treating the cells with an acidic saline glycine buffer (100 mM NaCl, 50 mM glycine, pH 2.8; 2 times for 5 min, on ice). The internalized fraction was determined by cell lysis with 1 M NaOH (10 min). Fractions of free, receptor-bound, and internalized radiopeptide were radiometrically measured in the gamma counter and calculated as percentage of applied dose normalized to 10^6 cells for all time points (n = 2–3 in triplicates, reported by means ± SD). […]

Hsp90 = settings: reported high affinity; read-out: affinity towards Hsp90; cited from earlier work

Row | Compound | logD [1] | applied radioactivity internalized [2] | Kd (Hsp90) [nM]
1 | CCCC[C@H](NC(=O)[C@H](CC(C)C)NC(=O)[C@H](Cc1c[nH]cn1)NC(=O)CNC(=O)[C@@H](NC(=O)[C@H](C)NC(=O)[C@H](Cc1c[nH]c2ccccc12)NC(=O)[C@H](CCC(N)=O)NC(=O)CCNC(=O)CCNC(=O)CCNC(=O)Cn1cc(CN[C@@H](CCCCNC(C)=O)C(=O)O)nn1)C(C)C)C(N)=O [[^99mTc(CO)3(16)], metal not drawn] | -0.44 ± 0.07 | 25%–30% | 
2 | KHSSG [shepherdin(79–83)] |  |  | 80
